Test results taken from patent US20260272934A1 (The United States of America, as represented by the …, priority 2023, published 2026).

What was measured:
[1] = biological target: T1, full-length Plk1 / biotinylated PBIP1 phospho-T78 peptide interaction (Homo sapiens, UniProt P53350); test: ELISA-based PBD1-binding inhibition assay; conditions: at least three independent experiments; read-out: ELISA (IC50) Mean ± SEM
T1 construct: HA; EGFP; expressed in transfected cells; host or cells: HEK293A cells infected with adenovirus; total lysates

5-HT1A = 5-HT1A (Homo sapiens, UniProt P08908); test: Off-target primary and secondary screen; assay type: binding; conditions: 10 mM sample
5-HT1B = 5-HT1B (Homo sapiens, UniProt P28222); test: Off-target primary and secondary screen; assay type: binding; conditions: 10 mM sample
5-HT1E = 5-HT1E (Homo sapiens, UniProt P28566); test: Off-target primary and secondary screen; assay type: binding; conditions: 10 mM sample
5-HT2C = biological target: T2, 5-HT2C (Homo sapiens, UniProt P28335); test: Off-target primary and secondary screen; assay type: binding; conditions: for Primary screen AVE (% inhib) ± SD: 10 mM sample
T2 sequence (P28335 33-458): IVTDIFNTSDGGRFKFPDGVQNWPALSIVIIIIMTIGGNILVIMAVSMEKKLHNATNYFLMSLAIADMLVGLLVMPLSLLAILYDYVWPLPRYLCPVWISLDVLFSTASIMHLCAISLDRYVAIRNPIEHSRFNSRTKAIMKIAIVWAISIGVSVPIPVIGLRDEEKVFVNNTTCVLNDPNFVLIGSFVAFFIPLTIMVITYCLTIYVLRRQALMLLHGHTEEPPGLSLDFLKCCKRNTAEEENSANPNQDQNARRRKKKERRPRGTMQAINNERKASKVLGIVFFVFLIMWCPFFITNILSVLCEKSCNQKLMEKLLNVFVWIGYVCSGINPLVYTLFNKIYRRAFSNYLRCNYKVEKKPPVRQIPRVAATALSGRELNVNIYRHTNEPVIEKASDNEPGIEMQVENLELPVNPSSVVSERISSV

5-HT6 = 5-HT6 (Homo sapiens, UniProt P50406); test: Off-target primary and secondary screen; assay type: binding; conditions: 10 mM sample
Chain of 5-HT6 (P50406 whole entry, species assumed): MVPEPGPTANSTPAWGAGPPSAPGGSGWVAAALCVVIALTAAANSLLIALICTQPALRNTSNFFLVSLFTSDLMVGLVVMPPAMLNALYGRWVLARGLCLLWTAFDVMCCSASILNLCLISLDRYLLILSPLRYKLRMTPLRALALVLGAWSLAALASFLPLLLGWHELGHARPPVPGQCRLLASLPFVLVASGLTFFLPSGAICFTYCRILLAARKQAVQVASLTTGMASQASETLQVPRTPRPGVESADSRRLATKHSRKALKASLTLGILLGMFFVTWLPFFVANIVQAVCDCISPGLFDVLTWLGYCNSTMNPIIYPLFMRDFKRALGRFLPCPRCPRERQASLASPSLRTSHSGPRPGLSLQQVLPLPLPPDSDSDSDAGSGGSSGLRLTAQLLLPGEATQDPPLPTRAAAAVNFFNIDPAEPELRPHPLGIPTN

5-HT7A = 5-HT7A (Homo sapiens, UniProt P34969); test: Off-target primary and secondary screen; assay type: binding; conditions: 10 mM sample
Chain of 5-HT7A (P34969 1-445 isoform P34969-2): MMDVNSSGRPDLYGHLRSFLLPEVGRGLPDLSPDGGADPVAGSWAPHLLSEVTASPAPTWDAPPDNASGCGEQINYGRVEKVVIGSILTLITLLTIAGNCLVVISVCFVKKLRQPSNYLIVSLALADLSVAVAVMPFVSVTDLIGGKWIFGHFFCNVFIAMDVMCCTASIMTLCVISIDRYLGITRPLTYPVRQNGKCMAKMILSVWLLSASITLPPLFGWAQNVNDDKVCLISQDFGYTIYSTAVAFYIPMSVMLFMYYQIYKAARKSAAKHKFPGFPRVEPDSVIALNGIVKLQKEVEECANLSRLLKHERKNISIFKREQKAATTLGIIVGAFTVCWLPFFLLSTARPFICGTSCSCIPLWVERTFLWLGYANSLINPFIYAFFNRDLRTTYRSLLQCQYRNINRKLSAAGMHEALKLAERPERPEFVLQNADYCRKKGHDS

Alpha1B = Alpha1B (Homo sapiens, UniProt P35368); test: Off-target primary and secondary screen; assay type: binding; conditions: 10 mM sample
Aipha1D = Aipha1D (Homo sapiens, UniProt P25100); test: Off-target primary and secondary screen; assay type: binding; conditions: 10 mM sample
Alpha2B = Alpha2B (Homo sapiens, UniProt P18089); test: Off-target primary and secondary screen; assay type: binding; conditions: 10 mM sample
Alpha2C = Alpha2C (Homo sapiens, UniProt P18825); test: Off-target primary and secondary screen; assay type: binding; conditions: 10 mM sample
Beta1 = Beta1 (Homo sapiens, UniProt P08588); test: Off-target primary and secondary screen; assay type: binding; conditions: 10 mM sample
Beta2 = Beta2 (Homo sapiens, UniProt P07550); test: Off-target primary and secondary screen; assay type: binding; conditions: 10 mM sample
Chain of Beta2 (P07550 whole entry): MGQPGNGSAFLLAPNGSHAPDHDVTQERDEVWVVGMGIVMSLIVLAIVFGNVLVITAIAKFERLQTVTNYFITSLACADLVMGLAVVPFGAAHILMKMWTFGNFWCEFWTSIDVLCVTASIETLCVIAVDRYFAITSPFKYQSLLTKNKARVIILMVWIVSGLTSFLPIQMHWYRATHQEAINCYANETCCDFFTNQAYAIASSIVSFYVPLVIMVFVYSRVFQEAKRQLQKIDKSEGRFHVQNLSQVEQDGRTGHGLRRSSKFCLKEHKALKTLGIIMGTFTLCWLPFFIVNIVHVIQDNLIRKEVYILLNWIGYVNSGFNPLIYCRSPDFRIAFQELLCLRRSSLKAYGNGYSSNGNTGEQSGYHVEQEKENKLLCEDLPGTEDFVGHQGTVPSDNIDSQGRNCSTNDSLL

Beta3 = Beta3 (Homo sapiens, UniProt P13945); test: Off-target primary and secondary screen; assay type: binding; conditions: 10 mM sample
BZP Rat brain site = test: Off-target primary and secondary screen; assay type: binding; conditions: for Primary screen AVE (% inhib) ± SD: 10 mM sample
D1 = D1 (Homo sapiens, UniProt P21728); test: Off-target primary and secondary screen; assay type: binding; conditions: 10 mM sample
D2 = D2 (Homo sapiens, UniProt P14416); test: Off-target primary and secondary screen; assay type: binding; conditions: 10 mM sample
Chain of D2 (P14416 whole entry): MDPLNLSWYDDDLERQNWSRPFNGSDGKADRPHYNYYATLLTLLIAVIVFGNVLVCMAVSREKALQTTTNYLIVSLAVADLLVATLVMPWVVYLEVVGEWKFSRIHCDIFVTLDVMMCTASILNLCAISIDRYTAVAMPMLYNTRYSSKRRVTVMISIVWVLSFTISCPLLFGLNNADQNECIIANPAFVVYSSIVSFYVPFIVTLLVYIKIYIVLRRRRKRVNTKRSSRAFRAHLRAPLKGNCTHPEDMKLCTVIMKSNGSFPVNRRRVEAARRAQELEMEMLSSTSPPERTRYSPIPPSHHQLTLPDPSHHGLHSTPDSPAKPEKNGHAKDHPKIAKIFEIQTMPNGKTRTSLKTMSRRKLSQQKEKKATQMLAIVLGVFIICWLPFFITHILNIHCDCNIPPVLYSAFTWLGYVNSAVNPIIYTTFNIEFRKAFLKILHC

D3 = D3 (Homo sapiens, UniProt P35462); test: Off-target primary and secondary screen; assay type: binding; conditions: 10 mM sample
D4 = D4 (Homo sapiens, UniProt P21917); test: Off-target primary and secondary screen; assay type: binding; conditions: 10 mM sample
DAT = DAT (Homo sapiens, UniProt Q01959); test: Off-target primary and secondary screen; assay type: binding; conditions: 10 mM sample
Chain of DAT (Q01959 whole entry, species assumed): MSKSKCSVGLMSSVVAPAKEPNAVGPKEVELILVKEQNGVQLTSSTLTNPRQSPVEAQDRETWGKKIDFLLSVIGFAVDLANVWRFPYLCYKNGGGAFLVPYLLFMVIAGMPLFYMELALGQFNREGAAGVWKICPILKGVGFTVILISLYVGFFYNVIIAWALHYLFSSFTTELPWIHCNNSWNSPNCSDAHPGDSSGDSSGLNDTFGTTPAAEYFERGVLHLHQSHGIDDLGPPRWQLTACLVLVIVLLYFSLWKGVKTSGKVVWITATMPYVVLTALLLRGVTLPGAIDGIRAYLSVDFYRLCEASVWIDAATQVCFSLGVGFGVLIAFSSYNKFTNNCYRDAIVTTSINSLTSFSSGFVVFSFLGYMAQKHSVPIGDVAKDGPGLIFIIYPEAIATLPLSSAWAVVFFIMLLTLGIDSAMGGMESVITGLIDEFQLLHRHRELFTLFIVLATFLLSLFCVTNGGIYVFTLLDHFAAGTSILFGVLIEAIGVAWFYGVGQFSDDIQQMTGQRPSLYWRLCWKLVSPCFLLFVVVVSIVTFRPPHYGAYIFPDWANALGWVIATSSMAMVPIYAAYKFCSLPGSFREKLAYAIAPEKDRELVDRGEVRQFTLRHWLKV

GABAA = test: Off-target primary and secondary screen; assay type: binding; conditions: for Primary screen AVE (% inhib) ± SD: 10 mM sample
H1 = H1 (Homo sapiens, UniProt P35367); test: Off-target primary and secondary screen; assay type: binding; conditions: 10 mM sample
Chain of H1 (P35367 whole entry): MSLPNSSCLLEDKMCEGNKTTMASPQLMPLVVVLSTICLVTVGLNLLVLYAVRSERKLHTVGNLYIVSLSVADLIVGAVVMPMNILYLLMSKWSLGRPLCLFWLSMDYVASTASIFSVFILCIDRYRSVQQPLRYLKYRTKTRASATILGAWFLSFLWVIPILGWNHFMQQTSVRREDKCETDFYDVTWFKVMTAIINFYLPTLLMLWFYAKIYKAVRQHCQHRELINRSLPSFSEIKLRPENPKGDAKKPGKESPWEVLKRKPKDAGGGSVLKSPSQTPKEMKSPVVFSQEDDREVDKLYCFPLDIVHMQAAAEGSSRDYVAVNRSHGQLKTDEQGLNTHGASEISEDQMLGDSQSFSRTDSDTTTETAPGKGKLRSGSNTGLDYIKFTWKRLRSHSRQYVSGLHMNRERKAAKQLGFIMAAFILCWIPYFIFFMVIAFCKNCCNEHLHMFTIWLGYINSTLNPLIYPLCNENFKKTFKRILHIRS

H2 = H2 (Homo sapiens, UniProt P25021); test: Off-target primary and secondary screen; assay type: binding; conditions: 10 mM sample
H3 = H3 (Homo sapiens, UniProt Q9Y5N1); test: Off-target primary and secondary screen; assay type: binding; conditions: 10 mM sample
Chain of H3 (Q9Y5N1 whole entry): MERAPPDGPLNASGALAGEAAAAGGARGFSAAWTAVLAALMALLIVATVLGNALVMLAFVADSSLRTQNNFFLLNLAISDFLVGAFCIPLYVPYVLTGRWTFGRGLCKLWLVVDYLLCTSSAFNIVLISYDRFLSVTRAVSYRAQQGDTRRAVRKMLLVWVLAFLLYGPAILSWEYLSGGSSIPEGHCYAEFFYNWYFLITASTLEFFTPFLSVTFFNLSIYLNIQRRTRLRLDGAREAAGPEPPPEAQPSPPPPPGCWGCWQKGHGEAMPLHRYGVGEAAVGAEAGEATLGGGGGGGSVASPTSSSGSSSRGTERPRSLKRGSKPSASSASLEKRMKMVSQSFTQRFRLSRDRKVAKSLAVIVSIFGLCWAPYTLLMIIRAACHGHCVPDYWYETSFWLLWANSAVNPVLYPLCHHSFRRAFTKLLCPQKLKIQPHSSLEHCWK

H4 = H4 (Homo sapiens, UniProt Q9H3N8); test: Off-target primary and secondary screen; assay type: binding; conditions: 10 mM sample
KOR = KOR (Homo sapiens, UniProt P41145); test: Off-target primary and secondary screen; assay type: binding; conditions: 10 mM sample
M1 = M1 (Homo sapiens, UniProt P11229); test: Off-target primary and secondary screen; assay type: binding; conditions: 10 mM sample
M2 = M2 (Homo sapiens, UniProt P08172); test: Off-target primary and secondary screen; assay type: binding; conditions: 10 mM sample
Chain of M2 (P08172 whole entry): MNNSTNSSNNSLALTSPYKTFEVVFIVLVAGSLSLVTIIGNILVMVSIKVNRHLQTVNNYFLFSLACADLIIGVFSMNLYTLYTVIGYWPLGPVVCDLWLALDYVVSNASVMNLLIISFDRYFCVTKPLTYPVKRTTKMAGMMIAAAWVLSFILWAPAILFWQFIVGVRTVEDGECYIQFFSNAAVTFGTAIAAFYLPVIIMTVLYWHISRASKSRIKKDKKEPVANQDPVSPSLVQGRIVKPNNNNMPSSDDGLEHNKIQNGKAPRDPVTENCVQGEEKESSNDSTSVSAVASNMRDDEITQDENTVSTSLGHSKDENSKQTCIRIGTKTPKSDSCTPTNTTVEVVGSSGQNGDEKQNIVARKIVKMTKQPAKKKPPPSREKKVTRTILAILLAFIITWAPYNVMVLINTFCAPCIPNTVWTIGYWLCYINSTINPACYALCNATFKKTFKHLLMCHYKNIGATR

M5 = M5 (Homo sapiens, UniProt P08912); test: Off-target primary and secondary screen; assay type: binding; conditions: 10 mM sample
MOR = MOR (Homo sapiens, UniProt P35372); test: Off-target primary and secondary screen; assay type: binding; conditions: 10 mM sample
Chain of MOR (P35372 whole entry): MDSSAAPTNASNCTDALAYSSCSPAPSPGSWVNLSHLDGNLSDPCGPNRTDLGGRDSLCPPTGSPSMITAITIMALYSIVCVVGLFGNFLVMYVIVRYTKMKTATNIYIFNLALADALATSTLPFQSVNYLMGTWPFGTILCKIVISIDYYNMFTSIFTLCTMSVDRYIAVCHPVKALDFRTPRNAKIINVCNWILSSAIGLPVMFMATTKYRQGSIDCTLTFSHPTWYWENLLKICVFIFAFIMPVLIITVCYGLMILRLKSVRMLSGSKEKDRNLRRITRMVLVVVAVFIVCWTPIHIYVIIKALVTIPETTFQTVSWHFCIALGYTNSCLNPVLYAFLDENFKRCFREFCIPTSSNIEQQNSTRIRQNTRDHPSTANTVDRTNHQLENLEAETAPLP

NET = NET (Homo sapiens, UniProt P23975); test: Off-target primary and secondary screen; assay type: binding; conditions: 10 mM sample
Chain of NET (P23975 whole entry): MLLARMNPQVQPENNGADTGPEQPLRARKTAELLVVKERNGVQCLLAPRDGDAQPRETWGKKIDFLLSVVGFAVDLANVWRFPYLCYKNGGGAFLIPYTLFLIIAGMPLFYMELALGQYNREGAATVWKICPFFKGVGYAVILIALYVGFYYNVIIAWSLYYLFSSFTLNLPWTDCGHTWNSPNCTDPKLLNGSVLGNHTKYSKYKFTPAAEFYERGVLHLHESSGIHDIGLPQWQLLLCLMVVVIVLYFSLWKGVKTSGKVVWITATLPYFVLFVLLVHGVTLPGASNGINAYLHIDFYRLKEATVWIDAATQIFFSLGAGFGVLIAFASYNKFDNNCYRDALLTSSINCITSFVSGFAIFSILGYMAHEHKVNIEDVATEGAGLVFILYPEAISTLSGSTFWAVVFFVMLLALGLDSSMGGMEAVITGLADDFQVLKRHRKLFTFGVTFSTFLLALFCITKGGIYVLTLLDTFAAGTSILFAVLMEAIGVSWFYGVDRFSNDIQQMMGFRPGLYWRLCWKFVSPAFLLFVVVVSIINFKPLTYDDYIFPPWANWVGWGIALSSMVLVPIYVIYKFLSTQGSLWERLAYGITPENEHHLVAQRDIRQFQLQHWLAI

PBR = PBR (Homo sapiens, UniProt P30536); test: Off-target primary and secondary screen; assay type: binding; conditions: for Primary screen AVE (% inhib) ± SD: 10 mM sample
Chain of PBR (P30536 whole entry, species assumed): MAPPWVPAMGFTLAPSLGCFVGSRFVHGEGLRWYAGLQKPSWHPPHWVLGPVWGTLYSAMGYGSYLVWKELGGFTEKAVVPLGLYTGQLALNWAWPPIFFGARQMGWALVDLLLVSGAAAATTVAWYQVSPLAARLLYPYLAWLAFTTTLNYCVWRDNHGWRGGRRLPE

SERT = SERT (Homo sapiens, UniProt P31645); test: Off-target primary and secondary screen; assay type: binding; conditions: 10 mM sample

| Compound | IC50 [1] | Primary screen AVE (% inhib) ± SD (5-HT1A) | Primary screen AVE (% inhib) ± SD (5-HT1B) | Primary screen AVE (% inhib) ± SD (5-HT1E) | Primary screen AVE (% inhib) ± SD (5-HT2C) | Primary screen AVE (% inhib) ± SD (5-HT6) | Primary screen AVE (% inhib) ± SD (5-HT7A) | Primary screen AVE (% inhib) ± SD (Alpha1B) | Primary screen AVE (% inhib) ± SD (Aipha1D) | Primary screen AVE (% inhib) ± SD (Alpha2B) | Primary screen AVE (% inhib) ± SD (Alpha2C) | Primary screen AVE (% inhib) ± SD (Beta1) | Primary screen AVE (% inhib) ± SD (Beta2) | Primary screen AVE (% inhib) ± SD (Beta3) | Ki (BZP Rat brain site) | Primary screen AVE (% inhib) ± SD (BZP Rat brain site) | Primary screen AVE (% inhib) ± SD (D1) | Primary screen AVE (% inhib) ± SD (D2) | Primary screen AVE (% inhib) ± SD (D3) | Primary screen AVE (% inhib) ± SD (D4) | other results |
| --- | --- | --- | --- | --- | --- | --- | --- | --- | --- | --- | --- | --- | --- | --- | --- | --- | --- | --- | --- | --- | --- |
| O=c1c2sc(Cl)cc2n2c(=S)[nH]nc2n1CC1CC1 [Compound 19, 7-Chloro-4-(cyclopropylmethyl)-1-thioxo-2,4-dihydrothieno[2,3-e][1,2,4]triazolo[4,3-a]pyrimidin-5 (1H)-one] | 1.4 ± 0.03 µM | -20.0 ± 27.4 % inhib | 17.7 ± 42.2 % inhib | 31.3 ± 7.6 % inhib | -18.3 ± 22.0 % inhib | -5.0 ± 11.7 % inhib | -88.1 ± 20.8 % inhib | -7.7 ± 9.7 % inhib | -9.9 ± 23.4 % inhib | -6.4 ± 7.1 % inhib | 10.6 ± 4.2 % inhib | -6.2 ± 19.4 % inhib | -2.1 ± 19.7 % inhib | 17.9 ± 8.6 % inhib | > 10 µM | 2.3 ± 21.8 % inhib | -17.2 ± 25.0 % inhib | -27.4 ± 13.1 % inhib | -7.0 ± 21.7 % inhib | -24.3 ± 4.4 % inhib | Primary screen AVE (% inhib) ± SD (DAT): 43.9 ± 13.0 % inhib; Ki (GABAA): > 10 µM; Primary screen AVE (% inhib) ± SD (GABAA): 35.7 ± 11.1 % inhib; Primary screen AVE (% inhib) ± SD (H1): 11.5 ± 2.8 % inhib; Primary screen AVE (% inhib) ± SD (H2): -27.4 ± 17.1 % inhib; Primary screen AVE (% inhib) ± SD (H3): -18.5 ± 3.8 % inhib; Primary screen AVE (% inhib) ± SD (H4): -4.5 ± 11.4 % inhib; Primary screen AVE (% inhib) ± SD (KOR): -0.3 ± 8.7 % inhib; Primary screen AVE (% inhib) ± SD (M1): 39.3 ± 10.7 % inhib; Primary screen AVE (% inhib) ± SD (M2): 21.1 ± 19.7 % inhib; Primary screen AVE (% inhib) ± SD (M5): 130.2 ± 3.0 % inhib; Primary screen AVE (% inhib) ± SD (MOR): 30.8 ± 47.5 % inhib; Primary screen AVE (% inhib) ± SD (NET): -39.3 ± 20.6 % inhib; Ki (PBR): > 10 µM; Primary screen AVE (% inhib) ± SD (PBR): 5.3 ± 8.3 % inhib; Primary screen AVE (% inhib) ± SD (SERT): -28.9 ± 28.7 % inhib |
| Cn1cnc([N+](=O)[O-])c1Sc1nnc2n(CC3CC3)c(=O)c3sc(Cl)cc3n12 [Compound 20, 7-Chloro-4-(cyclopropylmethyl)-1-((1-methyl-4-nitro-1H-imidazol-5-yl)thio) thieno[2,3-e][1,2,4]triazolo[4,3-a]pyrimidin-5 (4H)-one] | > 25 µM | -12.8 ± 19.7 % inhib | 60.8 ± 40.9 % inhib | 22.2 ± 10.5 % inhib | 59.5 ± 3.0 % inhib | 21.9 ± 15.6 % inhib | 14.9 ± 9.9 % inhib | -1.6 ± 9.5 % inhib | -15.1 ± 19.8 % inhib | 8.3 ± 16.4 % inhib | 6.4 ± 7.5 % inhib | 67.3 ± 49.1 % inhib | 0.1 ± 10.6 % inhib | 30.8 ± 22.8 % inhib | > 10 µM | 9.5 ± 7.6 % inhib | 21.5 ± 6.8 % inhib | 3.6 ± 6.6 % inhib | 12.8 ± 12.8 % inhib | 12.6 ± 4.9 % inhib | Ki (5-HT2C): 1.3 µM; Primary screen AVE (% inhib) ± SD (DAT): 54.0 ± 10.7 % inhib; Ki (GABAA): > 10 µM; Primary screen AVE (% inhib) ± SD (GABAA): 33.3 ± 4.2 % inhib; Primary screen AVE (% inhib) ± SD (H1): 35.8 ± 11.9 % inhib; Primary screen AVE (% inhib) ± SD (H2): -16.4 ± 21.5 % inhib; Primary screen AVE (% inhib) ± SD (H3): -12.5 ± 7.9 % inhib; Primary screen AVE (% inhib) ± SD (H4): 8.2 ± 3.1 % inhib; Primary screen AVE (% inhib) ± SD (KOR): 3.7 ± 4.1 % inhib; Primary screen AVE (% inhib) ± SD (M1): 50.7 ± 26.1 % inhib; Primary screen AVE (% inhib) ± SD (M2): 9.3 ± 19.3 % inhib; Primary screen AVE (% inhib) ± SD (M5): 95.0 ± 7.4 % inhib; Primary screen AVE (% inhib) ± SD (MOR): 40.6 ± 51.0 % inhib; Primary screen AVE (% inhib) ± SD (NET): -56.8 ± 10.5 % inhib; Ki (PBR): > 10 µM; Primary screen AVE (% inhib) ± SD (PBR): -2.1 ± 5.3 % inhib; Primary screen AVE (% inhib) ± SD (SERT): -56.0 ± 13.9 % inhib |
